Measured values as given in the supplement of paper PMC10307832.

Columns and labels:
Test in all cases: relative viability (nuclei count vs DMSO), 5 days (fraction); higher = more cells survive
[1] = test system: 201T
Method in brief: (§1)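 Five library-drug doses in √10 steps were combined with a fixed anchor-drug dose, or a single drug was given alone, by pin tool to lung cancer cell lines in 1536-well plates the day after seeding. Nuclei were stained and counted after 5 days. Relative viability is the nuclei count in treated wells over that in vehicle wells, taken as the median of duplicate plates.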

[2] = test system: BEN
Method in brief: as §1

[3] = test system: CAL-12T
Method in brief: as §1

[4] = test system: HCC-827
Method in brief: as §1

[5] = test system: LCLC-103H
Method in brief: as §1

[6] = test system: LCLC-97TM1
Method in brief: as §1

[7] = test system: LXF-289
Method in brief: as §1

[8] = test system: NCI-H1395
Method in brief: as §1

[9] = test system: NCI-H1437
Method in brief: as §1

[10] = test system: NCI-H1650
Method in brief: as §1

[11] = test system: NCI-H1792
Method in brief: as §1

[12] = test system: NCI-H1793
Method in brief: as §1

[13] = test system: NCI-H1944
Method in brief: as §1

[14] = test system: NCI-H2087
Method in brief: as §1

[15] = test system: NCI-H2228
Method in brief: as §1

[16] = test system: NCI-H2405
Method in brief: as §1

[17] = test system: NCI-H3122
Method in brief: as §1

[18] = test system: NCI-H322M
Method in brief: as §1

[19] = test system: NCI-H647
Method in brief: as §1

[20] = test system: NCI-H727
Method in brief: as §1

[21] = test system: RERF-LC-KJ
Method in brief: as §1

[22] = test system: SK-LU-1
Method in brief: as §1

With CCN(CC)CCCCNc1ncc2cc(-c3cc(OC)cc(OC)c3)c(NC(=O)NC(C)(C)C)nc2n1 + CC(=O)Nc1cccc(-n2c(=O)n(C3CC3)c(=O)c3c(Nc4ccc(I)cc4F)n(C)c(=O)c(C)c32)c1 [Trametinib] (partner 0.02 µM) the relative viability ([1]; first compound 0.01 µM) was 0.716, the relative viability ([1]; first compound 0.03162 µM) was 0.725 and the relative viability ([1]; first compound 0.1 µM) was 0.742. For the same molecule, the relative viability ([1]; first compound 0.3162 µM) was 0.742, the relative viability ([1]; first compound 1 µM) was 0.605 and the relative viability ([2]; first compound 0.01 µM) was 1.15. The relative viability ([2]; first compound 0.03162 µM) was 0.797, the relative viability ([2]; first compound 0.1 µM) was 0.978 and the relative viability ([2]; first compound 0.3162 µM) was 1.09. For the same molecule, the relative viability ([2]; first compound 1 µM) was 0.888, the relative viability ([3]; first compound 0.01 µM) was 0.3 and the relative viability ([3]; first compound 0.03162 µM) was 0.338. The relative viability ([3]; first compound 0.1 µM) was 0.372, the relative viability ([3]; first compound 0.3162 µM) was 0.261 and the relative viability ([3]; first compound 1 µM) was 0.333. For the same molecule, the relative viability ([4]; first compound 0.01 µM) was 0.539, the relative viability ([4]; first compound 0.03162 µM) was 0.59 and the relative viability ([4]; first compound 0.1 µM) was 0.585. For the same molecule, the relative viability ([4]; first compound 0.3162 µM) was 0.587, the relative viability ([4]; first compound 1 µM) was 0.516 and the relative viability ([5]; first compound 0.01 µM) was 0.691. For the same molecule, the relative viability ([5]; first compound 0.03162 µM) was 0.719, the relative viability ([5]; first compound 0.1 µM) was 0.75 and the relative viability ([5]; first compound 0.3162 µM) was 0.68. It also gave a relative viability ([5]; first compound 1 µM) of 0.579, a relative viability ([6]; first compound 0.01 µM) of 0.161 and a relative viability ([6]; first compound 0.03162 µM) of 0.189. It also gave a relative viability ([6]; first compound 0.1 µM) of 0.216, a relative viability ([6]; first compound 0.3162 µM) of 0.168 and a relative viability ([6]; first compound 1 µM) of 0.185. It also gave a relative viability ([7]; first compound 0.01 µM) of 0.704, a relative viability ([7]; first compound 0.03162 µM) of 0.703 and a relative viability ([7]; first compound 0.1 µM) of 0.637. For the same molecule, the relative viability ([7]; first compound 0.3162 µM) was 0.759, the relative viability ([7]; first compound 1 µM) was 0.644 and the relative viability ([8]; first compound 0.01 µM) was 1.05. For the same molecule, the relative viability ([8]; first compound 0.03162 µM) was 0.918, the relative viability ([8]; first compound 0.1 µM) was 0.907 and the relative viability ([8]; first compound 0.3162 µM) was 0.63. The relative viability ([8]; first compound 1 µM) was 0.568, the relative viability ([9]; first compound 0.01 µM) was 0.564 and the relative viability ([9]; first compound 0.03162 µM) was 0.529. It also gave a relative viability ([9]; first compound 0.1 µM) of 0.622, a relative viability ([9]; first compound 0.3162 µM) of 0.521 and a relative viability ([9]; first compound 1 µM) of 0.495. The relative viability ([10]; first compound 0.01 µM) was 0.695, the relative viability ([10]; first compound 0.03162 µM) was 0.564 and the relative viability ([10]; first compound 0.1 µM) was 0.783. The relative viability ([10]; first compound 0.3162 µM) was 0.598, the relative viability ([10]; first compound 1 µM) was 0.457 and the relative viability ([11]; first compound 0.01 µM) was 0.432. It also gave a relative viability ([11]; first compound 0.03162 µM) of 0.42, a relative viability ([11]; first compound 0.1 µM) of 0.415 and a relative viability ([11]; first compound 0.3162 µM) of 0.518. The relative viability ([11]; first compound 1 µM) was 0.232, the relative viability ([12]; first compound 0.01 µM) was 0.456 and the relative viability ([12]; first compound 0.03162 µM) was 0.405. The relative viability ([12]; first compound 0.1 µM) was 0.422, the relative viability ([12]; first compound 0.3162 µM) was 0.337 and the relative viability ([12]; first compound 1 µM) was 0.238. For the same molecule, the relative viability ([13]; first compound 0.01 µM) was 0.428, the relative viability ([13]; first compound 0.03162 µM) was 0.398 and the relative viability ([13]; first compound 0.1 µM) was 0.403. It also gave a relative viability ([13]; first compound 0.3162 µM) of 0.416, a relative viability ([13]; first compound 1 µM) of 0.401 and a relative viability ([14]; first compound 0.01 µM) of 0.202. For the same molecule, the relative viability ([14]; first compound 0.03162 µM) was 0.171, the relative viability ([14]; first compound 0.1 µM) was 0.217 and the relative viability ([14]; first compound 0.3162 µM) was 0.189. For the same molecule, the relative viability ([14]; first compound 1 µM) was 0.209, the relative viability ([15]; first compound 0.01 µM) was 0.449 and the relative viability ([15]; first compound 0.03162 µM) was 0.551. The relative viability ([15]; first compound 0.1 µM) was 0.311, the relative viability ([15]; first compound 0.3162 µM) was 0.543 and the relative viability ([15]; first compound 1 µM) was 0.309. It also gave a relative viability ([16]; first compound 0.01 µM) of 0.574, a relative viability ([16]; first compound 0.03162 µM) of 0.669 and a relative viability ([16]; first compound 0.1 µM) of 0.796. For the same molecule, the relative viability ([16]; first compound 0.3162 µM) was 0.655, the relative viability ([16]; first compound 1 µM) was 0.5 and the relative viability ([17]; first compound 0.01 µM) was 0.246. For the same molecule, the relative viability ([17]; first compound 0.03162 µM) was 0.229, the relative viability ([17]; first compound 0.1 µM) was 0.226 and the relative viability ([17]; first compound 0.3162 µM) was 0.239. For the same molecule, the relative viability ([17]; first compound 1 µM) was 0.247, the relative viability ([18]; first compound 0.01 µM) was 0.514 and the relative viability ([18]; first compound 0.03162 µM) was 0.49. It also gave a relative viability ([18]; first compound 0.1 µM) of 0.436, a relative viability ([18]; first compound 0.3162 µM) of 0.339 and a relative viability ([18]; first compound 1 µM) of 0.488. It also gave a relative viability ([19]; first compound 0.01 µM) of 0.382, a relative viability ([19]; first compound 0.03162 µM) of 0.517 and a relative viability ([19]; first compound 0.1 µM) of 0.512. It also gave a relative viability ([19]; first compound 0.3162 µM) of 0.456, a relative viability ([19]; first compound 1 µM) of 0.267 and a relative viability ([20]; first compound 0.01 µM) of 0.387. For the same molecule, the relative viability ([20]; first compound 0.03162 µM) was 0.412, the relative viability ([20]; first compound 0.1 µM) was 0.369 and the relative viability ([20]; first compound 0.3162 µM) was 0.362. It also gave a relative viability ([20]; first compound 1 µM) of 0.362, a relative viability ([21]; first compound 0.01 µM) of 0.925 and a relative viability ([21]; first compound 0.03162 µM) of 0.923. It also gave a relative viability ([21]; first compound 0.1 µM) of 0.94, a relative viability ([21]; first compound 0.3162 µM) of 0.906 and a relative viability ([21]; first compound 1 µM) of 0.818. It also gave a relative viability ([22]; first compound 0.01 µM) of 0.491, a relative viability ([22]; first compound 0.03162 µM) of 0.444 and a relative viability ([22]; first compound 0.1 µM) of 0.434. It also gave a relative viability ([22]; first compound 0.3162 µM) of 0.409 and a relative viability ([22]; first compound 1 µM) of 0.333.
